Values of other authors, collected in patent US11173186B2, “Dosing regime and formulations for type B adenovirus” (PSIOXUS THERAPEUTICS LIMITED, priority 2013, dated 2021).

Conditions: interim analysis; intratumoural talimogene laherparepvec vs subcutaneous GM-CSF

## GM-CSF: subcutaneously administered GM-CSF, comparator in the OPTiM trial
  durable response rate: 2%
